Data as given in publication PMC8699473, “An Easily Expandable Multi-Drug LC-MS Assay for the Simultaneous Quantification of 57 Oral Antitumor Drugs in Human Plasma” (Cancers, 2021).
Values joined by “and” are separate entries in the source; they are usually repeats but may differ in a detail not shown here. Equal values may be shown once.

Legend:
[1] = Plasma concentrations in patients on oral antitumor therapy (LC-MS); type: in vivo, human; details: for Interpatient Coefficient of Variation [%]: patient plasma concentrations; for Median Concentration of All Samples [% of r.c.] / Min–Max Concentration [% of r.c.]: patient plasma, r.c. = respective cmin, all samples
From the text: The liquid chromatography-mass spectrometer system consisted of a Thermo Scientific Dionex UltiMate^TM 3000 with an integrated and temperature controlled autosampler (Thermo Fisher Scientific, Dreieich, Germany). An Acquity UPLC® BEH C18 column (2.1 × 100 mm, 1.7 µm; Waters, Milford, CT, USA) equipped with an Acquity UPLC® BEH C18 VanGuard^TM Pre-Column (2.1 × 5 mm, 1.7 µm; Waters, Milford, CT, USA) was used for chromatographic separation. The Q-Exactive^TM Focus mass spectrometer (MS) was hyphenated with a heated electrospray ionization (HESI) source (both from Thermo Fisher Scientific, Dreieich, Germany).
Chromatographic separation was achieved using a gradient elution with water containing 0.5% (v/v) FA (eluent A) and MeOH with 0.1% (v/v) FA (eluent B). The injection volume was 5 µL. The gradient program is shown in Supplement Table S2. The flow rate was 0.5 mL/min with a total run time of 15 min. The column heater was maintained at 50 °C and the autosampler temperature was 4 °C.
The following MS and HESI settings were maintained for all analyses: Sheath gas, auxiliary gas, and sweep gas flow rates were set to 60, 20, and 0, respectively. The spray voltage was 4000 V. Both capillary and auxiliary gas heater temperatures were set to 400 °C. High-purity nitrogen gas was used for the HESI source gases and for the bath gas of the C-trap. […] The HESI source was configured in positive mode for ionization.
The stock solutions were stored in glass vials at −80 °C. Aliquots of all stock solutions were combined in ACN (volumes of individual stock solution solvents are negligible) to obtain a standard solution of all analytes with an individual concentration of 200% of the respective trough level (cmin). Eight individual working standards were prepared by stepwise dilution of this standard solution with concentrations from 10 to 200% cmin (shown in Supplement Table S3). Furthermore, the four individual IS stock solutions were combined and diluted to 50 ng/mL with ACN. Calibration and validation standards were prepared by spiking 50 µL pooled human plasma with 10 µL of the respective working solution. Next, 250 µL IS solution (50 ng/mL in ACN) were added and vortexed vigorously. […] Then, 100 µL supernatant were transferred to 300 µL HPLC insert glass vials and diluted with 100 µL eluent (90% A/10% B). For blank samples, 50 µL pooled human plasma were combined with 10 µL ACN (instead of working solution) and prepared as described above. The calibration and validation standards were freshly prepared before every run. Patient plasma samples were prepared as calibration and validation standards (no additional processing step necessary), except for adding 10 µL ACN instead of 10 µL working standard. Before sample preparation, the frozen plasma samples were thawed in absence of light at 4 °C.
Blood samples were collected over the entire dosing interval from patients treated with an oral anticancer drug as listed in Supplement Table S4. […] A maximum of two samples at two different time points throughout the entire dosing interval were collected per patient. Treatment duration before collection was at least five half-lives (depending on the specific oral anticancer drug). The samples were collected in K3-EDTA tubes.
A total of 71 blood samples from 39 patients treated with 14 different oral anticancer drugs were collected (see Supplement Table S4 for details). All patients were recruited from independent outpatient clinics associated with the Comprehensive Cancer Center of the University Hospital Erlangen (CCC Erlangen-EMN). Of 71 blood samples, 41 were taken ±4 h of trough level (cmin).

[2] = Reference trough level (cmin) at steady state; type: in vivo, human; details: minimum steady-state plasma concentration, calculated based on cmax; ref supplement [7], [2,5,24], [51]
[3] = 244 plasma samples; cited from earlier work
[4] = human

## Cc1ccc(NC(=O)c2ccc(CN3CCN(C)CC3)cc2)cc1Nc1nccc(-c2cccnc2)n1 [Imatinib]
[1]; 400 mg/day, 24 h, ±4 h of trough level: yes
  Measured plasma concentration: 1998.2 ng/mL and 1309.6 ng/mL
[1]
  Interpatient Coefficient of Variation [%]: 29.4%
  Median Concentration of All Samples [% of r.c.]: 168.9 % of r.c.

## COc1cc2nccc(Oc3ccc(NC(=O)NC4CC4)c(Cl)c3)c2cc1C(N)=O [Lenvatinib]
[1]; 14 mg/day, 24 h, ±4 h of trough level: yes
  Measured plasma concentration: 7.8 ng/mL

## O=C(c1cc(Cc2n[nH]c(=O)c3ccccc23)ccc1F)N1CCN(C(=O)C2CC2)CC1 [Olaparib]
[1]; 600 mg/day, 12 h, ±4 h of trough level: no
  Measured plasma concentration: 4442.9 ng/mL and 5552.4 ng/mL and 6053.6 ng/mL
[1]
  Interpatient Coefficient of Variation [%]: 51.6%
  Median Concentration of All Samples [% of r.c.]: 287.6 % of r.c.

## O=c1[nH]c(=O)n([C@H]2C[C@H](O)[C@@H](CO)O2)cc1C(F)(F)F [Trifluridine]
[2]
  cmin: 1135 ng/mL

## C[C@]12CC[C@H](O)CC1=CC[C@@H]1[C@@H]2CC[C@]2(C)C(c3cccnc3)=CC[C@@H]12 [Abiraterone]
[3]
  average plasma concentration: 9.3 ng/mL
  range of plasma concentration: 2.0 to 49.8 ng/mL
[1]; 14 patient samples
  CV of plasma concentration at ±4 h of trough level: 140.8%
  average concentration of the plasma samples at ±4 h of trough level: 10.2 ng/mL
  range of plasma concentration at ±4 h of trough level: 0.4 to 59.5 ng/mL
[1]
  Interpatient Coefficient of Variation [%]: 187.3%
  Median Concentration of All Samples [% of r.c.]: 229.0 % of r.c.
  Min–Max Concentration [% of r.c.]: 4.3–1784.9 % of r.c.

## COc1cc2c(Nc3ccc(Br)cc3F)ncnc2cc1OCC1CCN(C)CC1 [Vandetanib]
[1]; 300 mg/day, 24 h, ±4 h of trough level: no
  Measured plasma concentration: 757.7 ng/mL and 621.3 ng/mL
[1]
  Median Concentration of All Samples [% of r.c.]: 86.7 % of r.c.
  Min–Max Concentration [% of r.c.]: 78.2–95.3 % of r.c.

## Cc1ccc(Nc2nccc(N(C)c3ccc4c(C)n(C)nc4c3)n2)cc1S(N)(=O)=O [Pazopanib]
[1]; 200 mg/day, 24 h, ±4 h of trough level: yes
  Measured plasma concentration: 24300.0 ng/mL and 21520.0 ng/mL
[1]
  Median Concentration of All Samples [% of r.c.]: 81.5 % of r.c.
  Min–Max Concentration [% of r.c.]: 76.6–86.5 % of r.c.

## CC(C)(C)c1nc(-c2cccc(NS(=O)(=O)c3c(F)cccc3F)c2F)c(-c2ccnc(N)n2)s1 [Dabrafenib]
[1]
  Median Concentration of All Samples [% of r.c.]: 722.3 % of r.c.
  Min–Max Concentration [% of r.c.]: 455.8–988.8 % of r.c.

## C=CC(=O)Nc1cc(Nc2nccc(-c3cn(C)c4ccccc34)n2)c(OC)cc1N(C)CCN(C)C [Osimertinib]
[1]; 80 mg/day, 24 h, ±4 h of trough level: no
  Measured plasma concentration: 167.8 ng/mL
[1]
  Min–Max Concentration [% of r.c.]: 101.1 % of r.c.

## Cc1ccc(C(=O)Nc2ccc(CN3CCN(C)CC3)c(C(F)(F)F)c2)cc1C#Cc1cnc2cccnn12 [Ponatinib]
[4]
  Short-time stability (1h, 56°C) Accuracy [%]: 30.7%
  Short-time stability (24h, 4°C, without daylight) Accuracy [%]: 95.7%
  Short-time stability (24h, RT, with daylight) Accuracy [%]: 89.6%
  Short-time stability (24h, RT, without daylight) Accuracy [%]: 91.7%

## O=C1CN2Cc3c(ccc(Cl)c3Cl)N=C2N1 [Anagrelide]
[2]
  cmin: 1.5 ng/mL

## CNC(=O)c1ccc(N2C(=S)N(c3ccc(C#N)c(C(F)(F)F)c3)C(=O)C2(C)C)cc1F [Enzalutamide]
[1]; 160 mg/day, 24 h, ±4 h of trough level: yes
  Measured plasma concentration: 11296.4 ng/mL and 14087.2 ng/mL and 14395.8 ng/mL and 17580.7 ng/mL and 11074.7 ng/mL
[1]
  Median Concentration of All Samples [% of r.c.]: 120.1 % of r.c.
  Min–Max Concentration [% of r.c.]: 97.1–154.2 % of r.c.
